For data set [1], the target named is T1, COX-2 (Homo sapiens, UniProt P35354).
T1 construct: purchased Biovision K547
T1 sequence (P35354 18-604): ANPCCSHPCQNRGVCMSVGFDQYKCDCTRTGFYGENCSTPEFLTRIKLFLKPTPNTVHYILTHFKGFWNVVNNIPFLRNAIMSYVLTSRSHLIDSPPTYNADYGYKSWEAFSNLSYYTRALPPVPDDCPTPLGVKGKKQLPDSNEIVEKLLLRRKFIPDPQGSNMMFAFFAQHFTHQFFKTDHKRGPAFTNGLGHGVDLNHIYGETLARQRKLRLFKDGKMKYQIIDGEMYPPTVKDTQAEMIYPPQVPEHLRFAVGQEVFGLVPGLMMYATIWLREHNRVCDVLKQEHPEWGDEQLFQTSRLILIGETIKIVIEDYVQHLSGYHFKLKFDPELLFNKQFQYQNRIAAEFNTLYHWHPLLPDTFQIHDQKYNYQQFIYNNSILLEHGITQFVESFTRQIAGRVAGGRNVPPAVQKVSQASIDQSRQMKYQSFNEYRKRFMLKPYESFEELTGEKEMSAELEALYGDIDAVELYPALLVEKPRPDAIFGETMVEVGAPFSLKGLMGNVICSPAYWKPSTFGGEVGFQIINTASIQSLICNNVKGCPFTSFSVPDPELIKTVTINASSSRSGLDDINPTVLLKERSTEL
As to conditions: cited from earlier work.

For the next data set, the target named is T2, COX-1 (Ovis aries, UniProt P05979).
T2 construct: purchased Biovision K548
T2 sequence (P05979 25-600): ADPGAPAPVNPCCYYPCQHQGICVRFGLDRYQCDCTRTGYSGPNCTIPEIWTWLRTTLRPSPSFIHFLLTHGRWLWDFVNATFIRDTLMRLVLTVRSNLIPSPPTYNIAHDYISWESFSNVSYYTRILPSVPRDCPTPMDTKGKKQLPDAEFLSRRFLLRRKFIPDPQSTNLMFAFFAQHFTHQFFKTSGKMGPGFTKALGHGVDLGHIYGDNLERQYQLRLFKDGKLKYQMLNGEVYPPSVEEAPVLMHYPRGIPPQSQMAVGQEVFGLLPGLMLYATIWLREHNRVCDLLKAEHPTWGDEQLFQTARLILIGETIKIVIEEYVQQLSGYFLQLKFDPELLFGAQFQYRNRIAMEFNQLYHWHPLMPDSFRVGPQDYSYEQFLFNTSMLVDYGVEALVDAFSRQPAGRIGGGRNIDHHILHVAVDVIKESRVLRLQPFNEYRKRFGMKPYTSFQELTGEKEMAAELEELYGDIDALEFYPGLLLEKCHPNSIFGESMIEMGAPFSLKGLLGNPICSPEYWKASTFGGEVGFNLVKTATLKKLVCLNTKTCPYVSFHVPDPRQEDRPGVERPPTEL
In words: In vitro COX-1 inhibition (COX-1 Inhibitor Screening Kit-K548, Biovision). In kind it is biochemical. The note with it: mean of six values ± standard deviation. The protocol: (§1) The IC50 value of the tested compounds was determined.
COX-1 inhibitor Screening Protocol: Dissolve the tested compounds in DMSO. Use COX assay buffer to dilute the relevant test concentration by 10X before using. Place 10 µl of diluted test inhibitor or assay buffer in the specified wells instead of the sample screen (S) or enzyme control (EC; no inhibitor). To one of the wells, add 2 µl of SC560 and 8 µl of COX Assay Buffer as an inhibitor control (IC). Before using, combine 2 µl of COX Cofactor with 398 µl of COX Assay Buffer to dilute COX cofactor 200 times. Blend thoroughly. Just before using, mix 5 µl of the provided arachidonic acid with 5 µl of NaOH to make the arachidonic acid solution. Combine quickly using a vortex. To dilute the arachidonic acid/NaOH solution 10 times, add 90 µl of water. There should be 80 µl of reaction mix in each well. Using a multi-channel pipette, add 10 µl of diluted arachidonic acid/NaOH solution to each well to initiate all the reactions at once.

Data set [2] concerns the target T1, COX-2. As to the kind of experiment: In vitro COX-2 inhibition (COX-2 Inhibitor Screening Kit-K547, Biovision). As to conditions: for COX-2 S.I.: COX-1 IC50/COX-2 IC50; for IC50: mean of six values ± standard deviation. It is filed as biochemical. The protocol:
as §1
COX-2 inhibitor Screening Protocol: Dissolve the tested compounds in DMSO. Use COX Assay Buffer to dilute the relevant test concentration by 10X before using. Place 10 µl of diluted test inhibitor or Assay Buffer in the specified wells instead of the sample screen (S) or enzyme control (EC; no inhibitor). […] Before using, combine 2 µl of COX Cofactor with 398 µl of COX Assay Buffer to dilute COX Cofactor 200 times. Blend thoroughly. Just before using, mix 5 µl of the provided arachidonic acid with 5 µl of NaOH to make the arachidonic acid solution. Combine quickly using a vortex. To dilute the arachidonic acid/NaOH solution 10 times, add 90 µl of water. There should be 80 µl of reaction mix in each well. Using a multi-channel pipette, add 10 µl of diluted arachidonic acid/NaOH solution into each well to initiate the reactions concurrently.

The test system of data set [3] is PGE2. Also on record: method as in PMID 36166898. As to conditions: LPS-stimulated RAW cells; cited from earlier work.
Another data set deals with iNOS. In words: Inducible nitric oxide synthase (iNOS) inhibition in LPS-induced RAW 264.7 cells (ELISA). In kind it is cell-based. The note with it: Mus musculus, RAW264.7. The source says:
NO is produced from L-arginine by iNOS and is utilized in a variety of cell signaling processes. An inducible member of the NOS family, iNOS is increased during pro-inflammatory cytokine activity as a host-defense mechanism. A commercially available quantitative ELISA kit (ab253219 Mouse iNOS Simple Step ELISA® Kit) will be used to evaluate the iNOS enzyme activity of the substances in the cell lysate in accordance with the manufacturer’s instructions.
(In an ELISA, binding on a coated surface is turned into a signal by an enzyme label.)

The next data set can be described thus: MTS cytotoxicity assay. The note with it: mouse, RAW 264.7 macrophages (heading: LPS-induced), read-out: Cytotoxicity IC50 (LPS-induced RAW 264.7 cells). It is filed as cell-based. The protocol:
Using Dulbecco’s Modified Eagle Medium (DMEM, Biowest L0060) supplemented with 10% foetal bovine serum (FBS) (Biowest, S1810) and 1% anti-biotic and anti-mycotic (Biowest, L0010-100), the RAW264.7 macrophage cell line (ATCC ® TIB-71TM) was cultivated. The cells were then incubated at 37 °C with 5% CO2 until they were confluent, which should be between 70 and 80%. After two to three days, the growth media was regularly changed. Trypsin–EDTA was then used to wash and collect the cells (Biowest, L0931-500).
The MTS (3-(4,5-dimethylthiazol-2-yl)-5-(3-carboxymethoxy-phenyl)-2-(4-sulfophenyl)-2H-tetrazolium) test (Promega, ab197010) was used to determine cell viability. In short, a 96-well plate was seeded with 5 × 10^3 cells per well, and the cells were then incubated for 24 h at 37 °C and 5% CO2. The cells were then re-incubated for 24 h at 37 °C and 5% CO2 after the medium was discarded and replaced with 180 µl of fresh growth media and 20 µl of sample (1000 ug, 250 ug, 63 ug, 16 ug, and 4 ug µg/mL). 20 µl of MTS was then added to each well, and the mixture was incubated for three hours at 37 °C with 5% CO2. […] Control cells were those that received no treatment.
(In general: Formazan colour is commonly taken as a measure of viable cells.)

Data set [4] concerns carrageenan-induced rat paw edema. In words: Carrageenan-induced rat paw edema assay. The note with it: for Paw edema thickness ± SEM / Paw edema % inhibition: rat. In kind it is in vivo. The protocol: As previously described, paw thickness was evaluated at 1, 3, and 5 h following carrageenan injection at a dose of 50 mg/kg.
A general note: Carrageenan injected into the paw causes an acute inflammation.

The subject of the next data set is gastric mucosa. As to the kind of experiment: Ulcerogenic liability (ulcer index). It is filed as in vivo. As to conditions: 50 mg/kg orally, three successive days, rats. The protocol:
[…]. […] Rats were divided into 7 groups and fasted for 18 h before drug administration. The control group received the vehicle (2.5% Tween 80). […] After 2 h, animals were fed. Rats were given the required dose orally for three successive days. After 2 h of the last dose, rats were sacrificed; the stomach of each rat was removed then opened along the greater curvature and rinsed with saline. In order to examine the stomach, it was stretched by pins on a corkboard. The gastric mucosa was carefully inspected for the occurrence of ulcers with the aid of an illuminated magnifying lens (l0x), then ulcer index was calculated according to the method described by Cho and Ogle. Lesions were counted and measured along the greater diameter using transparent ruler. Every five hemorrhagic spots were considered equivalent to 1 mm of ulcer. The ulcer index (mm) was calculated from the sum of the total length of ulcers and hemorrhagic spots in each stomach.

Data set [5] concerns carrageenan-induced rat paw edema. As to the kind of experiment: Carrageenan-induced rat paw edema assay. It is filed as in vivo. As to conditions: 25 mg/kg.
The subject of data set [6] is PGE2. In words: PGE2 production in LPS-activated RAW 264.7 macrophages (ELISA). As to conditions: Mus musculus, RAW264.7, read-out: PGE2 IC50.
For a further data set, the system named is TNF-α. In words: TNF-α production in LPS-activated RAW 264.7 macrophages (ELISA). The note with it: Mus musculus, RAW264.7, read-out: TNF-α IC50.
The mark [7] stands for this setting: 3 h after carrageenan, 50 mg/kg.
Where [8] appears, read: 5 h after carrageenan, 50 mg/kg.

Like-named read-outs stand apart in the source and are kept apart here. Marks after values point to notes of the source that are not given here.

Take `Cc1ccc(N/N=C2\C(=N)N(c3ccc(S(N)(=O)=O)cc3)N=C2N)cc1` [Compound 8a]: the “COX-2 selectivity index (S.I.)” value on COX-2 [1] is 8.41.
Usually IC50 stands for the concentration at which inhibition is half-maximal. For `CCOC(=O)COc1ccc(C2=NN(c3ccc(S(C)(=O)=O)cc3)C(c3ccccc3)C2)cc1` (centres unmarked) [Compound 15a, Ethyl 2-(4-(1-(4-(methylsulfonyl)phenyl)-5-phenyl-4,5-dihydro-1H-pyrazol-3-yl)phenoxy) acetate], the half-maximal inhibitory concentration (IC50) on COX-1 turned out to be 7.42 ± 0.45 µM; on COX-2 [2] it was 3.9 ± 0.129 µM. The “COX-2 S.I.” value at COX-2 [2] turned out to be 1.90.
Regarding `CCOC(=O)COc1ccc(C2=NN(c3ccc(S(C)(=O)=O)cc3)C(c3ccccc3Br)C2)cc1` (centres unmarked) [Compound 15 g, Ethyl 2-(4-(5-(2-bromophenyl)-1-(4-(methylsulfonyl)phenyl)-4,5-dihydro-1H-pyrazol-3-yl)phenoxy)acetate], the IC50 against COX-1 was 8.59 ± 0.33 µM. At COX-2 [2], the “COX-2 S.I.” value is recorded as 15.07 and 0.575 ± 0.019 µM corresponded to half-maximal inhibition (IC50).
Consider `N=C1/C(=N\Nc2ccc(Cl)cc2)C(N)=NN1c1ccc(S(N)(=O)=O)cc1` [Compound 8b], for which the “COX-2 selectivity index (S.I.)” value at COX-2 [1] was 10.55.
On COX-1, `CCOC(=O)COc1ccc(C2=NN(c3ccc(S(C)(=O)=O)cc3)C(c3ccc(C)cc3)C2)cc1` (centres unmarked) [Compound 15b, Ethyl 2-(4-(1-(4-(methylsulfonyl)phenyl)-5-(p-tolyl)-4,5-dihydro-1H-pyrazol-3-yl)phenoxy)acetate] came in with a half-maximal inhibitory concentration (IC50) of 11.4 ± 0.42 µM. For the same molecule, at COX-2 [2], the “COX-2 S.I.” value came out at 5.89 and the IC50 amounted to 1.94 ± 0.064 µM.
In the same order, the values of `CCOC(=O)COc1ccc(C2=NN(c3ccc(S(C)(=O)=O)cc3)C(c3ccc([N+](=O)[O-])cc3)C2)cc1` (centres unmarked) [Compound 15f, Ethyl 2-(4-(1-(4-(methylsulfonyl)phenyl)-5-(4-nitrophenyl)-4,5-dihydro-1H-pyrazol-3-yl)phenoxy)acetate] are 6.83 ± 0.25 µM, 4.30 and 1.59 ± 0.052 µM.
Turning to `CCOC(=O)COc1ccc(C2=NN(c3ccc(S(C)(=O)=O)cc3)C(c3ccc(Cl)cc3)C2)cc1` (centres unmarked) [Compound 15e, Ethyl 2-(4-(5-(4-chlorophenyl)-1-(4-(methylsulfonyl)phenyl)-4,5-dihydro-1H-pyrazol-3-yl)phenoxy)acetate], the IC50 against COX-1 stood at 3.01 ± 0.12 µM. Moreover, on COX-2 [2], the “COX-2 S.I.” value stood at 4.05 and the IC50 came to 0.742 ± 0.025 µM.
In the case of `O=C(O)COc1ccc(C(=O)/C=C/c2cn(-c3ccccc3)nc2-c2ccc([N+](=O)[O-])cc2)cc1` [Compound 10], the IC50 with PGE2 [3] is 11 µM.
By ED50 is commonly meant the dose that gives a 50% effect, or the effect in half of the subjects. Low readings indicate greater potency, high ones weaker potency. For `Cc1ccc(-c2cc(C(F)(F)F)nn2-c2ccc(S(N)(=O)=O)cc2)cc1` [Celecoxib, celecoxib, reference compound], the figures for the IC50 in the data set on iNOS, with PGE2 [6] and with TNF-α were 0.48 ± 0.04 µM, 0.38 ± 0.027 µM and 0.87 ± 0.03 µM, respectively. Besides, the IC50 at 24 h in “MTS cytotoxicity assay” was 149 ± 5.3 µM. For the same molecule, the “% inhibition (edema)” value in data set [4] (50 mg/kg) stood at 97.48%; in data set [5], 34.97%. In addition, the “Paw edema thickness ± SEM” value in data set [4] (1 h after carrageenan, 50 mg/kg) is 3.43 ± 0.004 mm; in [4] (setting [7]) it was 3.1 ± 0.011 mm; in [4] (setting [8]), 2.52 ± 0.0095 mm. Moreover, the “Paw edema % inhibition” value in data set [4] (setting [7]) was found to be 38.3%; in data set [4] (setting [8]), 56.3%. In addition, it took a dose of 40.4 mg/kg to reach the 50% effect level in [4] (Rattus norvegicus, dose producing 50% edema inhibition) (ED50). For the same molecule, in the data set with gastric mucosa, the “Average no of ulcer” value is given as 0.48 ± 0.015***^b. Also, in the data set with gastric mucosa, the Average severity is recorded as 0.66 ± 0.026***^b.

The values above are taken from PMC12926254, “Novel pyrazole carboxylate derivatives as lonazolac bioisosteres with selective COX-2 inhibition: design, synthesis and anti-inflammatory activity” (Molecular Diversity, 2025).
